Laboratory results reported in ChEMBL document CHEMBL4834431, “Design of Dimeric Bile Acid Derivatives as Potent and Selective Human NTCP Inhibitors” (J Med Chem, 2021).

Tested on: Hepatitis B virus
Test: Antiviral activity against HBV infected in human HepG2-NTCP cells assessed as reduction in HBeAg secretion incubated for 24 hrs followed replacement with fresh medium and measured at day 5 post infection by ELISA
Assay type: functional, organism-based

Row | SMILES | IC50 [nM]
1 | C[C@@H]1CCC(=O)OCCOC(=O)CC[C@@H](C)[C@H]2CC[C@H]3[C@@H]4[C@@H](O)C[C@@H]5C[C@@H](CC[C@]5(C)[C@H]4CC[C@]23C)NC(=O)CCCC(=O)N[C@@H]2CC[C@@]3(C)[C@@H](C2)C[C@H](O)[C@@H]2[C@@H]3CC[C@]3(C)[C@@H]1CC[C@@H]23 | 185
2 | C[C@H](CCCNC(=O)CC[C@@H](C)[C@H]1CC[C@H]2[C@@H]3[C@@H](O)C[C@@H]4C[C@H](O)CC[C@]4(C)[C@H]3CC[C@]12C)[C@H]1CC[C@H]2[C@@H]3[C@@H](O)C[C@@H]4C[C@H](O)CC[C@]4(C)[C@H]3CC[C@]12C | > 10000
3 | C[C@H](CCC(=O)NCCS(=O)(=O)O)[C@H]1CC[C@H]2[C@@H]3[C@@H](O)C[C@@H]4CC(O)(C5(O)CC[C@@]6(C)[C@H](C[C@H](O)[C@@H]7[C@@H]6CC[C@]6(C)[C@@H]([C@H](C)CCC(=O)NCCS(=O)(=O)O)CC[C@@H]76)C5)CC[C@]4(C)[C@H]3CC[C@]12C (stereo partly specified) | > 10000
4 | C[C@H](CCC(=O)NCCS(=O)(=O)O)[C@H]1CC[C@H]2[C@@H]3[C@@H](O)C[C@@H]4CC(NCCNC5CC[C@@]6(C)[C@@H](C5)C[C@H](O)[C@@H]5[C@@H]6CC[C@]6(C)[C@@H]([C@H](C)CCC(=O)NCCS(=O)(=O)O)CC[C@@H]56)CC[C@]4(C)[C@H]3CC[C@]12C (stereo partly specified) | 7680
5 | C[C@H](CCC(=O)NCCS(=O)(=O)O)[C@H]1CC[C@H]2[C@@H]3[C@@H](O)C[C@@H]4CC(NC(=O)CC(=O)NC5CC[C@@]6(C)[C@@H](C5)C[C@H](O)[C@@H]5[C@@H]6CC[C@]6(C)[C@@H]([C@H](C)CCC(=O)NCCS(=O)(=O)O)CC[C@@H]56)CC[C@]4(C)[C@H]3CC[C@]12C (stereo partly specified) | 3570
6 | C[C@H](CCC(=O)NCCS(=O)(=O)O)[C@H]1CC[C@H]2[C@@H]3[C@@H](O)C[C@@H]4C/C(=C5\CC[C@@]6(C)[C@@H](C5)C[C@H](O)[C@@H]5[C@@H]6CC[C@]6(C)[C@@H]([C@H](C)CCC(=O)NCCS(=O)(=O)O)CC[C@@H]56)CC[C@]4(C)[C@H]3CC[C@]12C | > 10000
7 | C[C@@H]1CCC(=O)NCCNC(=O)CC[C@@H](C)[C@H]2CC[C@H]3[C@@H]4[C@@H](O)C[C@@H]5C[C@H](CC[C@]5(C)[C@H]4CC[C@]23C)NC(=O)CN(C)CC(=O)N[C@@H]2CC[C@@]3(C)[C@@H](C2)C[C@H](O)[C@@H]2[C@@H]3CC[C@]3(C)[C@@H]1CC[C@@H]23 | 1210
8 | C[C@H](CCC(=O)NCCS(=O)(=O)O)[C@H]1CC[C@H]2[C@@H]3[C@@H](O)C[C@@H]4C[C@H](OC(=O)CCCCCC(=O)O[C@@H]5CC[C@@]6(C)[C@@H](C5)C[C@H](O)[C@@H]5[C@@H]6CC[C@]6(C)[C@@H]([C@H](C)CCC(=O)NCCS(=O)(=O)O)CC[C@@H]56)CC[C@]4(C)[C@H]3CC[C@]12C | 683
9 | C[C@H](CCC(=O)O)[C@H]1CC[C@H]2[C@@H]3[C@@H](O)C[C@@H]4C[C@H](NC(=O)CCCC(=O)N[C@@H]5CC[C@@]6(C)[C@@H](C5)C[C@H](O)[C@@H]5[C@@H]6CC[C@]6(C)[C@@H]([C@H](C)CCC(=O)NCCS(=O)(=O)O)CC[C@@H]56)CC[C@]4(C)[C@H]3CC[C@]12C | 93
10 | C[C@@H]1CCC(=O)NCCCCCNC(=O)CC[C@@H](C)[C@H]2CC[C@H]3[C@@H]4[C@@H](O)C[C@@H]5CC[C@@H](C[C@]5(C)[C@H]4CC[C@]23C)n2cc(nn2)CO[C@H]2CC[C@H]3C[C@H](O)[C@@H]4[C@H](CC[C@]5(C)[C@@H]1CC[C@@H]45)[C@@]3(C)C2 | 465
11 | C[C@H](CCC(=O)NCCS(=O)(=O)O)[C@H]1CC[C@H]2[C@@H]3[C@@H](O)C[C@@H]4C[C@H](OCC#CC#CCO[C@@H]5CC[C@@]6(C)[C@@H](C5)C[C@H](O)[C@@H]5[C@@H]6CC[C@]6(C)[C@@H]([C@H](C)CCC(=O)NCCS(=O)(=O)O)CC[C@@H]56)CC[C@]4(C)[C@H]3CC[C@]12C | 1870
12 | C[C@@H]1CCC(=O)NCCCCCCNC(=O)CC[C@@H](C)[C@H]2CC[C@H]3[C@@H]4[C@@H](O)C[C@@H]5CC[C@@H](C[C@]5(C)[C@H]4CC[C@]23C)n2cc(nn2)CO[C@H]2CC[C@H]3C[C@H](O)[C@@H]4[C@H](CC[C@]5(C)[C@@H]1CC[C@@H]45)[C@@]3(C)C2 | 210
13 | C[C@@H]1CCCOC(=O)CC[C@@H](C)[C@H]2CC[C@H]3[C@@H]4[C@@H](O)C[C@@H]5C[C@@H](CC[C@]5(C)[C@H]4CC[C@]23C)NC(=O)CCCC(=O)N[C@@H]2CC[C@@]3(C)[C@@H](C2)C[C@H](O)[C@@H]2[C@@H]3CC[C@]3(C)[C@@H]1CC[C@@H]23 | 525
14 | C[C@@H]1CCC(=O)NCCCCNC(=O)CC[C@@H](C)[C@H]2CC[C@H]3[C@@H]4[C@@H](O)C[C@@H]5CC[C@@H](C[C@]5(C)[C@H]4CC[C@]23C)n2cc(nn2)CO[C@H]2CC[C@H]3C[C@H](O)[C@@H]4[C@H](CC[C@]5(C)[C@@H]1CC[C@@H]45)[C@@]3(C)C2 | 280
15 | C[C@H](CCC(=O)O)[C@H]1CC[C@H]2[C@@H]3[C@@H](O)C[C@@H]4C[C@H](OCCCCCO[C@@H]5CC[C@@]6(C)[C@@H](C5)C[C@H](O)[C@@H]5[C@@H]6CC[C@]6(C)[C@@H]([C@H](C)CCC(=O)NCCS(=O)(=O)O)CC[C@@H]56)CC[C@]4(C)[C@H]3CC[C@]12C | 935
16 | C[C@H](CCC(=O)O)[C@H]1CC[C@H]2[C@@H]3[C@@H](O)C[C@@H]4CC(NC(=O)CCCC(=O)NC5CC[C@@]6(C)[C@@H](C5)C[C@H](O)[C@@H]5[C@@H]6CC[C@]6(C)[C@@H]([C@H](C)CCC(=O)O)CC[C@@H]56)CC[C@]4(C)[C@H]3CC[C@]12C (stereo partly specified) | 3570
17 | C[C@H](CCCOC(=O)CC[C@@H](C)[C@H]1CC[C@H]2[C@@H]3[C@@H](O)C[C@@H]4C[C@H](O)CC[C@]4(C)[C@H]3CC[C@]12C)[C@H]1CC[C@H]2[C@@H]3[C@@H](O)C[C@@H]4C[C@H](O)CC[C@]4(C)[C@H]3CC[C@]12C | 2700
18 | C[C@H](CCC(=O)O[C@@H]1CC[C@@]2(C)[C@@H](C1)C[C@H](O)[C@@H]1[C@@H]2CC[C@]2(C)[C@@H]([C@H](C)CCC(=O)O[C@@H]3CC[C@@]4(C)[C@@H](C3)C[C@H](O)[C@@H]3[C@@H]4CC[C@]4(C)[C@@H]([C@H](C)CCC(=O)NCCS(=O)(=O)O)CC[C@@H]34)CC[C@@H]12)[C@H]1CC[C@H]2[C@@H]3[C@@H](O)C[C@@H]4C[C@H](O)CC[C@]4(C)[C@H]3CC[C@]12C | 2650
19 | C[C@H](CCC(=O)NCCS(=O)(=O)O)[C@H]1CC[C@H]2[C@@H]3[C@@H](O)C[C@@H]4CC(NC(=O)CCCC(=O)NC5CC[C@@]6(C)[C@@H](C5)C[C@H](O)[C@@H]5[C@@H]6CC[C@]6(C)[C@@H]([C@H](C)CCC(=O)NCCS(=O)(=O)O)CC[C@@H]56)CC[C@]4(C)[C@H]3CC[C@]12C (stereo partly specified) | 41
20 | C[C@H](CCc1cn([C@@H]2CC[C@@]3(C)[C@@H](C2)C[C@H](O)[C@@H]2[C@@H]3CC[C@]3(C)[C@@H]([C@H](C)CCC(=O)O)CC[C@@H]23)nn1)[C@H]1CC[C@H]2[C@@H]3[C@@H](O)C[C@@H]4C[C@H](O)CC[C@]4(C)[C@H]3CC[C@]12C | 25
21 | C[C@@H]1CCC(=O)NCCCNC(=O)CC[C@@H](C)[C@H]2CC[C@H]3[C@@H]4[C@@H](O)C[C@@H]5CC[C@@H](C[C@]5(C)[C@H]4CC[C@]23C)n2cc(nn2)CO[C@H]2CC[C@H]3C[C@H](O)[C@@H]4[C@H](CC[C@]5(C)[C@@H]1CC[C@@H]45)[C@@]3(C)C2 | 178
22 | C[C@H](CCC(=O)NCCS(=O)(=O)O)[C@H]1CC[C@H]2[C@@H]3[C@@H](O)C[C@@H]4CC(C5CC[C@@]6(C)[C@@H](C5)C[C@H](O)[C@@H]5[C@@H]6CC[C@]6(C)[C@@H]([C@H](C)CCC(=O)NCCS(=O)(=O)O)CC[C@@H]56)CC[C@]4(C)[C@H]3CC[C@]12C (stereo partly specified) | > 10000
23 | C[C@H](CCC(=O)NCCS(=O)(=O)O)[C@H]1CC[C@H]2[C@@H]3[C@@H](O)C[C@@H]4C[C@H](NCCCCCN[C@@H]5CC[C@@]6(C)[C@@H](C5)C[C@H](O)[C@@H]5[C@@H]6CC[C@]6(C)[C@@H]([C@H](C)CCC(=O)NCCS(=O)(=O)O)CC[C@@H]56)CC[C@]4(C)[C@H]3CC[C@]12C | 9650
24 | C[C@H](CCC(=O)NCCS(=O)(=O)O)[C@H]1CC[C@H]2[C@@H]3CC[C@@H]4C[C@H](OC(=O)CCCC(=O)O[C@@H]5CC[C@@]6(C)[C@H](CC[C@@H]7[C@@H]6CC[C@]6(C)[C@@H]([C@H](C)CCC(=O)NCCS(=O)(=O)O)CC[C@@H]76)C5)CC[C@]4(C)[C@H]3CC[C@]12C | 3240
25 | C[C@H](CCC(=O)NCCS(=O)(=O)O)[C@H]1CC[C@H]2[C@@H]3[C@H](O)C[C@@H]4C[C@H](OC(=O)CCCC(=O)O[C@@H]5CC[C@@]6(C)[C@@H](C5)C[C@@H](O)[C@@H]5[C@@H]6CC[C@]6(C)[C@@H]([C@H](C)CCC(=O)NCCS(=O)(=O)O)CC[C@@H]56)CC[C@]4(C)[C@H]3CC[C@]12C | 187
26 | C[C@@H]1CCC(=O)NCCCNC(=O)CC[C@@H](C)[C@H]2CC[C@H]3[C@@H]4[C@@H](O)C[C@@H]5C[C@@H](CC[C@]5(C)[C@H]4CC[C@]23C)NC(=O)CCCC(=O)N[C@@H]2CC[C@@]3(C)[C@@H](C2)C[C@H](O)[C@@H]2[C@@H]3CC[C@]3(C)[C@@H]1CC[C@@H]23 | 564
